ChEMBL document CHEMBL1122392, “C4-substituted 1-beta-D-ribofuranosylpyrazolo[3,4-d]pyrimidines as adenosine agonist analogues” (J Med Chem, 1983)

What was measured:
[1] = biological target: Adenosine receptor (Rattus norvegicus, UniProt P29276+P25099+P30543+P28647); experiment: Displacement of [3H]CHA from rat brain adenosine receptor
[2] = biological target: Adenosine receptor (Rattus norvegicus) (UniProt P29276+P25099+P30543+P28647); experiment: Displacement of [3H]CHA from rat brain adenosine receptor at 10e-4 M
Adenosine receptor (Rattus norvegicus), sequence (P25099 whole entry, looked up): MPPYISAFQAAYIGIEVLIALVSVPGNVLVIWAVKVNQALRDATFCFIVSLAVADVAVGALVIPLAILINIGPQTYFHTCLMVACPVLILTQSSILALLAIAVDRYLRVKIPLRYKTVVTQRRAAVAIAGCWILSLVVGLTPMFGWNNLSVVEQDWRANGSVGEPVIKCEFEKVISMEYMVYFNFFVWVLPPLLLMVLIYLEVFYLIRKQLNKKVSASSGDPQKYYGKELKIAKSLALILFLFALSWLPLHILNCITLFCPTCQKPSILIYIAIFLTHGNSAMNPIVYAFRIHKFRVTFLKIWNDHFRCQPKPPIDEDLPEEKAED
Adenosine receptor (Rattus norvegicus), sequence (P28647 whole entry, looked up): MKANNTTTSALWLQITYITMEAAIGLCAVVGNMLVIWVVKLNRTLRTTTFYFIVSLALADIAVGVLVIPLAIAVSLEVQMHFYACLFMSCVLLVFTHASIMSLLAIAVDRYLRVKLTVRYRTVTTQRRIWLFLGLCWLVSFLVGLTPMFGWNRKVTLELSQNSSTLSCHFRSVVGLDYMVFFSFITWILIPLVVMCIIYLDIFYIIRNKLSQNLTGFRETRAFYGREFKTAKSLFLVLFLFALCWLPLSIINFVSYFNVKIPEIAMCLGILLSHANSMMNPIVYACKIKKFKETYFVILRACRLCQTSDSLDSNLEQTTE
Adenosine receptor (Rattus norvegicus), sequence (P29276 whole entry, looked up): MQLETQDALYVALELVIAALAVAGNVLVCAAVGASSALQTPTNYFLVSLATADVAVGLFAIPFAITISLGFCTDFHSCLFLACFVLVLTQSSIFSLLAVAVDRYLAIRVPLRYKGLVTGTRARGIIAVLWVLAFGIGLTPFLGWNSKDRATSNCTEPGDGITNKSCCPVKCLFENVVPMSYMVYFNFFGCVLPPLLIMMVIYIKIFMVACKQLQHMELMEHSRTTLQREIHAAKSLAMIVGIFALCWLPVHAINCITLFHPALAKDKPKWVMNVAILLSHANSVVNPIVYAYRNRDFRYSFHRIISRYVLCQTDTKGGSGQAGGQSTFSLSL
Adenosine receptor (Rattus norvegicus), sequence (P30543 whole entry, looked up): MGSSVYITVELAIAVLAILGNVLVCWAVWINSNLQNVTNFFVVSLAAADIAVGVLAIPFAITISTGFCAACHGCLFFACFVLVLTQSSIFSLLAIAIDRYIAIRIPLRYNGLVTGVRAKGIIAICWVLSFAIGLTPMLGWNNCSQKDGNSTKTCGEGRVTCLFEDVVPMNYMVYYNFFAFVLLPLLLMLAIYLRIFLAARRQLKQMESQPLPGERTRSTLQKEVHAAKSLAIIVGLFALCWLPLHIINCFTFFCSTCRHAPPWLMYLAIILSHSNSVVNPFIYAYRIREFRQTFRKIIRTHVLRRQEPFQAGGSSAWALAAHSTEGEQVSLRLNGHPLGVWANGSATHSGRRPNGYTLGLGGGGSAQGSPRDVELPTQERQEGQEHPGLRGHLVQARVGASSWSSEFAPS

SMILES	IC50 [1] [µM]	inhibition [2] [%]
CCCNc1ncnc2c1ncn2C1O[C@H](CO)[C@@H](O)[C@H]1O (stereo not given in full)	0.004	
C[C@@H](Cc1ccccc1)Nc1ncnc2c1cnn2[C@@H]1O[C@H](CO)[C@@H](O)[C@H]1O (stereo in doubt)		31

The next lines start with the values.

IC50 [1] [µM]	inhibition [2] [%]	SMILES
20.2		OC[C@H]1OC(n2ncc3c(NC4CCCCC4)ncnc32)[C@H](O)[C@@H]1O (stereo not given in full)
76.5		CCCNc1ncnc2c1cnn2C1O[C@H](CO)[C@@H](O)[C@H]1O (stereo not given in full)
	47	C[C@@H](Cc1ccccc1)Nc1ncnc2c1cnn2[C@@H]1O[C@H](CO)[C@@H](O)[C@H]1O (stereo in doubt; 1)
